Measurements taken from patent publication US20120270935A1, “FORMULATIONS” (priority 2009, published 2012).

What was measured:
P. acnes NCTC 737 = test: Disc diffusion assay (DDA); type: cell-based, Propionibacterium acnes; settings: 200 μg compound per disc, DMSO
Description: The first test micro-organism used was Propionibacterium acnes NCTC 737. This is a propionibacterial strain and is the type strain of the […]; it is fully susceptible to antibiotics.
The propionibacteria were cultured and maintained on Wilkins-Chalgren Anaerobe Medium (agar and broth) at pH 6.0; all cultures were incubated anaerobically at 37° C. for 72 hours.
This is an internationally recognised standard method for qualitatively assessing the antimicrobial activity of a compound.
A sterile paper disc was impregnated with a sample of the test compound in a suitable solvent and 30 minutes allowed for the solvents to evaporate (where possible). The disc was then placed on an agar plate onto which the test micro-organism had been inoculated. The plate was then incubated under the conditions described above, following which it was examined visually for signs of microbial growth. If the test compound had antimicrobial activity, a circular zone of no growth would be obtained around the disc. The diameter of this zone of “inhibition” was measured using a ProtoCOL™ automated zone sizer (Synbiosis, Cambridge, UK). In general, a greater diameter and/or area of the zone of inhibition indicates a greater antimicrobial activity in the relevant test compound, although other factors such as test compound mobility through the agar gel may also influence the result.
DDA assays, as described above, were carried out using as the test formulation the gel prepared in Example 2B above. Also tested was the Example 2B gel minus the Klucel™ thickener, which was also subjected to MIC and MBC assays. For the DDAs, which were performed in triplicate, 100 μl of the relevant formulation was loaded onto each disc, and zones of inhibition were recorded after 3 days' anaerobic incubation at 37° C. The MIC and MBC tests were performed in duplicate and the results recorded after 3 days and 7 days respectively, post-subculture onto drug-free medium. […]

S. mutans ATCC 25175 = test: Disc diffusion assay (DDA); type: cell-based, Streptococcus mutans; settings: 200 μg per disc, 48 hours at 37° C., 5% carbon dioxide, single plates
Description: (a) staphylococci. The Staphylococcus aureus strain used was ATCC 29213. S. aureus and other staphylococci are common causes of a wide range of skin, skin structure and wound infections; S. aureus is also known to exacerbate eczema. The ATCC 29213 strain is known to be susceptible to beta-lactam antibiotics such as methicillin. The Staphylococcus epidermidis strain used was NCTC 11047. Staph. epidermidis forms part of the resident flora of skin and is an opportunistic pathogen which can cause biofilms to grow for instance on plastic surgical implants such as catheters. Unless otherwise stated, the staphylococci were cultured and maintained on Mueller-Hinton Medium (agar and broth) at pH 7.2; cultures were incubated aerobically at 37° C. for 19-20 hours, at pH 7 (±0.2). (b) C. striatum NCTC 764. Corynebacterium striatum is closely related to organisms (aerobic diphtheroids of the genus Corynebacterium) that cause body odour. It was cultured and maintained on Mueller-Hinton medium (agar and broth). All cultures were incubated aerobically at 37° C. for 72 hours, at pH 7 (±0.2). (c) streptococci. The strains tested were S. mutans ATCC 25175 and S. pyogenes ATCC 12344. […] The diameter of this zone of “inhibition” was measured using a ProtoCOL™ automated zone sizer (Synbiosis, Cambridge, UK). […]

Compound | DDA zone diameter, unsupplemented medium (P. acnes NCTC 737) | DDA zone diameter (S. mutans ATCC 25175) | zone of inhibition at 200 µg/disc (P. acnes NCTC 737; Cutibacterium acnes, NCTC737, read-out: DDA zone diameter, unsupplemented medium) | zone of inhibition at 200 µg/disc (S. mutans ATCC 25175; Streptococcus mutans, ATCC25175, read-out: DDA zone diameter)
CC(=O)c1c([O-])c(C)c([O-])c2c1OC1=CC(=O)C(C(C)=O)C(=O)C12C.[Cu+2] (stereo not shown) [Copper usnate, copper (II) usnate] | 46.7 ± 0.4 mm | 32.4 mm | – | –
CC(=O)c1c(O)c(C)c(O)c2c1OC1=CC(=O)C(C(C)=O)C(=O)C12C (stereo not shown) [Usnic acid, 2,6-diacetyl-7,9-dihydroxy-8,9b-dimethyl-1,3(2H,9bh)-dibenzofurandione] | – | – | 23.9 mm | 31.2 mm
